According to patent US12016837B2, “Halogenated esters of cyclopropanated unsaturated fatty acids for use in the treatment of neurodegenerative diseases” (Synaptogenix, Inc., priority 2013, dated 2024):

Columns and labels:
PKC-ε [1] = target: T1, PKC-ε (Homo sapiens, UniProt Q02156); experiment: PKC-ε activation: incorporation of 32P-inorganic phosphate from gamma-32P-ATP; assay type: biochemical
T1 sequence (Q02156 1-737): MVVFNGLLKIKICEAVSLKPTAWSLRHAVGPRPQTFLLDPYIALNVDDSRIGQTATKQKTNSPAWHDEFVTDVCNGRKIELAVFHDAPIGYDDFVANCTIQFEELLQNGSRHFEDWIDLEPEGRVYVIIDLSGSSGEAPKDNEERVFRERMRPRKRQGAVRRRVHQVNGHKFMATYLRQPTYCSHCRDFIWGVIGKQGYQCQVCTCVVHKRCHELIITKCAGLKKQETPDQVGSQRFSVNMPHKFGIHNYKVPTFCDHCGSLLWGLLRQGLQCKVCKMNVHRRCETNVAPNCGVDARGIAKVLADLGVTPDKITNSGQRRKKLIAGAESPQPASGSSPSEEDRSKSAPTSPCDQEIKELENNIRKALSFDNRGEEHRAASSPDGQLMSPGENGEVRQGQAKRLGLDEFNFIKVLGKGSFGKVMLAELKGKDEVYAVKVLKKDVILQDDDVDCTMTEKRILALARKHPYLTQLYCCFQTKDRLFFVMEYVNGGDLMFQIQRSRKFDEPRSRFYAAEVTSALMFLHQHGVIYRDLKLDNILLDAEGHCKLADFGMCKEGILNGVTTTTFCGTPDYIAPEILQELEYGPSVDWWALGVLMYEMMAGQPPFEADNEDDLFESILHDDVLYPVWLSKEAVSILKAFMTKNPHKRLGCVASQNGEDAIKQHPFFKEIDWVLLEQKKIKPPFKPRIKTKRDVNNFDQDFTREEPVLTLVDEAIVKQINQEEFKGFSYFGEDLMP
Protocol: Example 4: PKC-ε activation by DCPLA-EtF3 versus DCPLA methyl ester. […] Sen A, Alkon D L, Nelson T J, J. Biol. Chem. 287(19): 15947-58 (2012). PKC-ε activation by DCPLA-EtF3 was measured by measuring the incorporation of 32P-inorganic phosphate from gamma-32P-ATP by recombinant human PKC-ε.
Example 5: PKC-ε activation by 1,1,1-trifluoropropan-2-yl DCPLA. PKC-ε activation by 1,1,1-trifluoropropan-2-yl DCPLA was measured by measuring the incorporation of 32P-inorganic phosphate from gamma-32P-ATP by recombinant human PKC-ε. […] Activation started at 0.01 nM and was biphasic, consistent with a low and a high affinity binding site for DCPLA.

PKC-ε [2] = target: T1, PKC-ε; conditions: earlier research, cited from earlier work

CCCCCC1CC1CC1CC1CCCCCCCC(=O)OC(C)C(F)(F)F (stereo not drawn) [1,1,1-trifluoropropan-2-yl DCPLA]
concentration at which PKC-ε activation started (PKC-ε [1]; FIG. 2): 10 pM
potency compared to unmodified DCPLA (PKC-ε [1]; FIG. 2, comparison in words): superior potency
shape of PKC-ε activation response (PKC-ε [1]; FIG. 2, consistent with a low and a high affinity binding site): biphasic

CCCCCC1CC1CC1CC1CCCCCCCC(=O)OC (stereo not drawn) [DCPLA methyl ester]
concentration of maximum PKC-ε activation (PKC-ε [2]): 0.1 µM
potency as PKC-ε activator relative to unesterified DCPLA (PKC-ε [2]; more potent than unesterified DCPLA): approximately 100 times

CCCCCC1CC1CC1CC1CCCCCCCC(=O)OCC(F)(F)F (stereo not drawn) [DCPLA-EtF3, DCPLA-trifluoroethyl ester]
concentration of peak PKC-ε activation (PKC-ε [1]; FIG. 1): 0.1 to 1 nM
extent of PKC-ε activation compared with DCPLA methyl ester (PKC-ε [1]; FIG. 1, comparison in words): approximately the same extent of activation as DCPLA methyl ester
potency as PKC-ε activator relative to DCPLA methyl ester (PKC-ε [1]; FIG. 1, more potent than DCPLA methyl ester): approximately 1000 times
potency compared with bryostatin-1 (PKC-ε [1]; comparison in words): approximately equal to that of bryostatin-1
